# In patent US20230093861A1, “RAPAMYCIN ANALOGS AS MTOR INHIBITORS” (Revolution Medicines, Inc., priority 2017, published 2023):
# Read-outs that look alike come from different tables or passages of the source.
# Experiments:
# [1] = system: P-4E-BP1 (T37/46); assay: Cell based AlphaLISA assay, inhibition of P-4E-BP1 (T37/46) (mTORC1 substrate phosphorylation) in MDA-MB-468 cells; settings: Homo sapiens, MDA-MB-468, 4 h, two to four hours at 37° C.
# In short: (§1)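 Readout is the Alpha signal for each phosphoprotein, measured in duplicate from cell lysates with a SureFire Ultra homogeneous assay. IC50 values derive from inhibitor concentration-response curves fitted by normalized regression against controls.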
# [2] = system: P-P70S6K (T389); assay: Cell based AlphaLISA assay, inhibition of P-P70S6K (T389) (mTORC1 substrate phosphorylation) in MDA-MB-468 cells; settings: Homo sapiens, 4 h, two to four hours at 37° C.
# In short: as §1
# [3] = system: P-Akt (S473); assay: Cell based AlphaLISA assay, inhibition of P-Akt (S473) (mTORC2 substrate phosphorylation) in MDA-MB-468 cells; settings: Homo sapiens, MDA-MB-468, 4 h, two to four hours at 37° C.
# In short: as §1
# [4] = AlphaLISA, read-out: pIC50 for Inhibition of mTORC1 and mTORC2 Substrate Phosphorylation, P-4E-BP1-(T37/46) (converted)
# [5] = AlphaLISA, read-out: pIC50 for Inhibition of mTORC1 and mTORC2 Substrate Phosphorylation, P-P70S6K-(T389) (converted)
# [6] = AlphaLISA, read-out: pIC50 for Inhibition of mTORC1 and mTORC2 Substrate Phosphorylation, p-AKT 1/2/3 -(S473) (converted)
SMILES,"IC50 [1, 4] [nM]","IC50 [2, 5] [nM]","IC50 [3, 6] [nM]","IC50 ([1]; AlphaLisa SureFire Ultra, read-out: IC50 for Inhibition of mTORC1 and mTORC2 Substrate Phosphorylation, p-4E-BP1-(T37/46)) [nM]","IC50 ([2]; AlphaLisa SureFire Ultra, read-out: IC50 for Inhibition of mTORC1 and mTORC2 Substrate Phosphorylation, p-P70S6K-(T389)) [nM]","IC50 ([3]; AlphaLisa SureFire Ultra, read-out: IC50 for Inhibition of mTORC1 and mTORC2 Substrate Phosphorylation, p-AKT1/2/3-(S473)) [nM]"
COC(=O)N[C@H]1C[C@@H]2CC[C@@H](C)[C@@](O)(O2)C(=O)C(=O)N2CCCC[C@H]2C(=O)O[C@H]([C@H](C)C[C@@H]2CC[C@@H](OCCCCc3cn(CCOCCOCCOCCOCCOCCOCCOCCOCCC(=O)N4CCN(c5ccc(-n6c(=O)n(C)c7cnc8ccc(-c9ccc(OC)nc9)cc8c76)cc5C(F)(F)F)CC4)nn3)[C@H](OC)C2)CC(=O)[C@H](C)/C=C(\C)[C@@H](O)[C@@H](OC)C(=O)[C@H](C)CC(C)/C=C/C=C/C=C/1C (stereo partly drawn) [Example 72],< 3.16,< 1,< 3.16,–,–,–
CO[C@H]1C[C@@H]2CC[C@@H](C)[C@@](O)(O2)C(=O)C(=O)N2CCCC[C@H]2C(=O)O[C@H]([C@H](C)C[C@@H]2CC[C@H](n3cc(COC(=O)NCCOCCOCCOCCOCCC(=O)NCc4cnc(N5CCN(c6ncc(C(=O)NCCCCn7nc(-c8cc9cc(O)ccc9[nH]8)c8c(N)ncnc87)cn6)CC5)nc4)nn3)[C@H](OC)C2)CC(=O)[C@H](C)/C=C(\C)[C@@H](O)[C@@H](OC)C(=O)[C@H](C)C[C@H](C)/C=C/C=C/C=C/1C [Example 186],3.16 to 31.6,< 1,31.6 to 1000,–,–,–
CO[C@H]1C[C@@H]2CC[C@@H](C)[C@@](O)(O2)C(=O)C(=O)N2CCCC[C@H]2C(=O)O[C@H]([C@H](C)C[C@@H]2CC[C@@H](OCCC(C)(C)Cc3cn(CCOCCOCCOCCOCCOCCOCCOCCOCCC(=O)NCCCCn4nc(-c5ccc6oc(N)nc6c5)c5c(N)ncnc54)nn3)[C@H](OC)C2)CC(=O)[C@H](C)/C=C(\C)[C@@H](O)[C@@H](OC)C(=O)[C@H](C)C[C@H](C)/C=C/C=C/C=C/1C [Example 58],< 3.16,< 1,< 3.16,–,–,–
CO[C@H]1C[C@@H]2CC[C@@H](C)[C@@](O)(O2)C(=O)C(=O)N2CCCC[C@H]2C(=O)O[C@H]([C@H](C)C[C@@H]2CC[C@H](n3nncc3-c3cccc(-c4cnc(N5CCN(S(=O)(=O)CCc6cn(CCOCCOCCOCCOCC(=O)NCCCCn7nc(-c8ccc9oc(N)nc9c8)c8c(N)ncnc87)nn6)CC5)nc4)c3)[C@H](OC)C2)CC(=O)[C@H](C)/C=C(\C)[C@@H](O)[C@@H](OC)C(=O)[C@H](C)C[C@H](C)/C=C/C=C/C=C/1C [Example 37],< 3.16,< 1,3.16 to 31.6,–,–,–
CO[C@H]1C[C@@H]2CC[C@@H](C)[C@@](O)(O2)C(=O)C(=O)N2CCCC[C@H]2C(=O)O[C@H]([C@H](C)C[C@@H]2CC[C@H](n3nncc3-c3cccc(-c4cnc(N5CCN(C(=O)CCc6cn(CCOCCOCCC(=O)NCCCCn7nc(-c8ccc9oc(N)nc9c8)c8c(N)ncnc87)nn6)CC5)nc4)c3)[C@H](OC)C2)CC(=O)[C@H](C)/C=C(\C)[C@@H](O)[C@@H](OC)C(=O)[C@H](C)C[C@H](C)/C=C/C=C/C=C/1C [Example 49],< 3.16,< 1,31.6 to 1000,–,–,–
CO[C@H]1C[C@@H]2CC[C@@H](C)[C@@](O)(O2)C(=O)C(=O)N2CCCC[C@H]2C(=O)O[C@H]([C@H](C)C[C@@H]2CC[C@@H](OCCCCc3cn(CCOCCOCCOCCOCCOCCOCCOCCOCCC(=O)NCCCCn4nc(-c5ccc6oc(N)nc6c5)c5c(N)ncnc54)nn3)[C@H](OC)C2)CC(=O)[C@H](C)/C=C(\C)[C@@H](O)[C@@H](OC)C(=O)[C@H](C)C[C@H](C)/C=C/C=C/C=C/1C [Example 1],< 3.16,< 1,< 3.16,1,0.3,3.9
CO[C@H]1C[C@@H]2CC[C@@H](C)[C@@](O)(O2)C(=O)C(=O)N2CCCC[C@H]2C(=O)O[C@H]([C@H](C)C[C@@H]2CC[C@H](n3cc(COC(=O)NCCOCCOCCOCCC(=O)NCCOCCOCCC(=O)NCCCCn4nc(-c5ccc6oc(N)nc6c5)c5c(N)ncnc54)nn3)[C@H](OC)C2)C/C(=N/OCc2ccccc2)[C@H](C)/C=C(\C)[C@@H](O)[C@@H](OC)C(=O)[C@H](C)C[C@H](C)/C=C/C=C/C=C/1C [Example 154],> 1000,> 1000,> 1000,–,–,–
CCO[C@@H]1C[C@@H]([C@H](C)C[C@@H]2CC[C@H](n3cc(COC(=O)NCCOCCOCCOCCC(=O)NCCOCCOCCOCCC(=O)NCCCCn4nc(-c5ccc6oc(N)nc6c5)c5c(N)ncnc54)nn3)[C@H](OC)C2)OC(=O)[C@@H]2CCCCN2C(=O)C(=O)[C@]2(O)O[C@@H](CC[C@H]2C)C[C@H](OC)/C(C)=C/C=C/C=C/[C@@H](C)C[C@@H](C)C(=O)[C@H](OC)[C@H](O)/C(C)=C/[C@H]1C [Example 149],31.6 to 1000,1 to 10,31.6 to 1000,–,–,–
